Patent US5519115A, “Reverse antimicrobial peptides” (priority 1993, dated 1996)

Test system: Erwinia carotovora carotovora strain SR319 (Ecc SR319)
Experiment: Antibacterial bioassay (MCIC)
Assay type: cell-based
Description: Erwinia carotovora carotovora strain SR319 (Ecc SR319) (a gift of Dr. C. H. Liao, USDA-ARS, Philadelphia, Pa.) was streaked on a plate of Luria-Bertani ("LB") broth agar and grown overnight at 28° C. After 24 hours, a loopful of Ecc SR319 was picked from the agar plate and was added to 3 ml of LB broth (10 g Bacto-tryptone, 5 g Bacto-yeast extract, and 10 g sodium chloride per liter of solution; autoclaved sterile) in a capped sterile 10 ml test tube. This culture was grown overnight before its optical density at 630 nm was recorded using a Dynatech MR 600 microplate reader (Dynatech Laboratories, Inc., Alexandria, Va.). A portion of the overnight culture was adjusted with Luria broth to obtain a culture with an optical density at 630 nm of 0.2. About 250 microliters of this culture was added to 2250 microliters of Luria broth in a capped, sterile 10 ml test tube before this diluted culture was grown for 3-4 hours at 28° C. in a shaking incubator until the optical density of the freshly grown culture at 630 nm reached 0.2. […] The optical density of each Ecc SR319 culture well was recorded at 20 hours and then at 44 hours. A minimum complete inhibitory concentration (MCIC) was then determined for each replicate set of varying peptide concentrations at which no bacterial growth was observed. […]

Met-Mag 1 dimer (head-to-tail) [Peptide No. 9]
MCIC Values (Ecc SR319) (mean after 20 hours of treatment, at least three replicate experiments): 33 +/- 5 micrograms per mL
activity against Ecc SR319 compared with parent monomers (in words) (tested at equivalent microgram per mL quantities, parent monomers Pep Nos. 1, 2, 4, and 12): better activity than at least one of the parent monomers
